Assay results as given in patent publication US20260034119A1, “5-METHOXY-N,N-[…][…], THEIR […], AND METHODS FOR TREATMENT OF NEUROLOGICAL, […], AND SUBSTANCE USE DISORDERS” (priority 2023, published 2026).
Where “and” joins values, the source holds several entries; their conditions need not be identical. Equal entries are not always repeated. Where two headings read alike, the source gives them in different places.

Legend:
[1] = biological target: T1, human 5-HT1A (Homo sapiens, UniProt P08908); test: cell-based
T1 sequence (P08908 1-422): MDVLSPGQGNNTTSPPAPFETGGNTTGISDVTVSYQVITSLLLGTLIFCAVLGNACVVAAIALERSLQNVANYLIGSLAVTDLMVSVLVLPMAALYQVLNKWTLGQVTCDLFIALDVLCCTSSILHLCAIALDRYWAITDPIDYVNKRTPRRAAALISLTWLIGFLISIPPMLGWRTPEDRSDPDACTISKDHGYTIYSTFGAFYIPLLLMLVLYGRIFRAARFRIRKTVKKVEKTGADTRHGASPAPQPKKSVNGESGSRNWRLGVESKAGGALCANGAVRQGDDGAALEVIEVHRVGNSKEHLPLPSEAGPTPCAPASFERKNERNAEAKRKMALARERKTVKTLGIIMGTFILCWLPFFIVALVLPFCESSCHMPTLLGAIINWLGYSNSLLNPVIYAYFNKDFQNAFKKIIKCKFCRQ

[2] = biological target: T2, 5-HT1A (Homo sapiens, UniProt P08908); test: cell-based
[3] = biological target: T3, 5-HT2A (Homo sapiens, UniProt P28223); test: cell-based
[4] = biological target: T1, human 5-HT1A; test: 5-HT1A-mediated cAMP reduction assay (GloSensor, HEK293-T); settings: for Efficacy as %5HT 5-HT1A cAMP: Table 6, commercial ligands
[5] = biological target: T2, 5-HT1A; test: BRET signaling assay: 5-HT1A-mediated activation of heterotrimeric Gi1 (TRUPATH, HEK293-T); settings: for Efficacy as %5HT 5-HT1A BRET Gi1: Table 6, commercial ligands; for Emax: HEK-293T, read-out: Emax, 5-HT1A-mediated activation of Gi1 (BRET)
[6] = biological target: T3, 5-HT2A
[7] = biological target: 5-HT2B (Homo sapiens, UniProt P41595); test: IP1 functional assay 5-HT2B; format: cell-based
[8] = biological target: T3, 5-HT2A; test: cell-based; design: expressed in transfected cells; host or cells: HEK293-T
[9] = EC50 (nM) Mean BRET Gq-2A, Table 2
[10] = EC50 (nM) Mean Gio(cAMP)-1A, Table 2
[11] = EC50 (nM) Mean BRET Gi1-1A, Table 2

T3 sequence (P28223 whole entry): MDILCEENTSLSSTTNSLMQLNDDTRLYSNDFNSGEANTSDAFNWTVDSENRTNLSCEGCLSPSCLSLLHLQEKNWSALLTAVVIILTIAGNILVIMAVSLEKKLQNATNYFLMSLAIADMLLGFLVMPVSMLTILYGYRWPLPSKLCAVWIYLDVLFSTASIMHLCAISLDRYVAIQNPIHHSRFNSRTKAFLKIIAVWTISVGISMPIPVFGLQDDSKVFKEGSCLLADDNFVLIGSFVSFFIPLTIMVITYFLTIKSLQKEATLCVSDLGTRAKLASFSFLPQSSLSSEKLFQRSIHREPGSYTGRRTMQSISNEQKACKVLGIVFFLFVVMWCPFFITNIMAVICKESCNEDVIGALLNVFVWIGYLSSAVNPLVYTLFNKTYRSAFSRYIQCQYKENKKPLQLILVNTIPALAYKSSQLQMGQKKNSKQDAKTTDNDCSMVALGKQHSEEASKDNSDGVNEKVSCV
Chain of 5-HT2B (P41595 whole entry, species assumed): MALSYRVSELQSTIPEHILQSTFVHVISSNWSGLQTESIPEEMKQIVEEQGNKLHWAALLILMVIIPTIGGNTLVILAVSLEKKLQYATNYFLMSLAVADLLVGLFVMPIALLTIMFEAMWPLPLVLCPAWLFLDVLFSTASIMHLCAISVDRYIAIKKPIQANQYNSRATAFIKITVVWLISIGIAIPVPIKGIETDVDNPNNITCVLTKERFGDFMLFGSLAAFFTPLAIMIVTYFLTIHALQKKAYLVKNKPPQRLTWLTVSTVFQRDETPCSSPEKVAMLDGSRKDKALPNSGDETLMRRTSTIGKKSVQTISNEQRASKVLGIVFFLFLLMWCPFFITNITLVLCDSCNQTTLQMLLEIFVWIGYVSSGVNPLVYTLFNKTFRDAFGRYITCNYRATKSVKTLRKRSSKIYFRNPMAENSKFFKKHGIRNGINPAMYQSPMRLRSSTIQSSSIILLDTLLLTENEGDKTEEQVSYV

Row | Structure (SMILES) | EC50 [1] | EC50 [2] | EC50 [3] | EC50 [3, 9] | EC50 [4, 10] | also measured
1 | COc1ccc2[nH]cc(CCN(C)C(C)C)c2c1 [Compound 14] | 51.8 nM | 112 nM | 17.3 nM |  |  | 
2 | COc1ccc2[nH]cc(CCN(C)C)c2c1F [Compound 1] |  |  |  | 86.5 nM |  | EC50 ([4]; pEC50 Gio(cAMP)-1A, Table 2): 0.186 nM; EC50 ([5]; EC50 (nM) Mean BRET Gi1-1A): 1.77 nM
3 | CCN(CC)CCc1c[nH]c2ccc(OC)cc12 [Compound 11] | 11 nM | 37.1 nM | 172 nM |  |  | 
4 | COc1ccc2[nH]cc(CCN3CCCC3)c2c1F [Compound 11] |  |  |  | 300 nM | 0.03 nM | EC50 ([4]; pEC50 Gio(cAMP)-1A, Table 2): 0.0282 nM; EC50 ([5]; pEC50 BRET Gi1-1A, Table 2): 0.372 nM
5 | COc1ccc2[nH]cc(CCN(C)C(C)C)c2c1F [Compound 7] |  |  |  | 152 nM | 2.98 nM | EC50 [5, 11]: 14.2 nM
6 | NCCc1c[nH]c2ccc(O)cc12 [Compound 5-HT, 5-hydroxytryptamine, reference compound] |  |  |  |  |  | Normalized (%5HT) Top Mean BRET Gq-2A ([6]; Table 2): 100.0 %5HT; Efficacy as %5HT 5-HT2A BRET Gq ([6]; Table 6, commercial ligands): 100.0 %5HT; Normalized (%5HT) Top Mean Gio(cAMP) 1A ([4]; Table 2): 100.0 %5HT; Efficacy as %5HT 5-HT1A cAMP [4]: 100.0 %5HT; Normalized (%5HT) Top Mean BRET Gi1-1A ([5]; Table 2): 100.0 %5HT; Efficacy as %5HT 5-HT1A BRET Gi1 [5]: 100.0 %5HT
7 | O=C1CC2(CCCC2)CC(=O)N1CCCCN1CCN(c2ncccn2)CC1 [Buspirone, buspirone, reference compound] |  |  |  |  |  | Efficacy as %5HT 5-HT1A cAMP [4]: 96.0 %5HT; Emax [5]: 93.4%; Efficacy as %5HT 5-HT1A BRET Gi1 [5]: 93.4 %5HT
8 | N#Cc1ccc2[nH]cc(CCCCN3CCN(c4ccc5oc(C(N)=O)cc5c4)CC3)c2c1 [Vilazodone, vilazodone, reference compound] |  |  |  |  |  | Efficacy as %5HT 5-HT1A cAMP [4]: 110.5 %5HT; activity at concentrations as low as ([5]; 5-HT1A Gi1 BRET): 30 pM; Emax [5]: 97.4%; Efficacy as %5HT 5-HT1A BRET Gi1 [5]: 97.4 %5HT
9 | COc1ccc2[nH]cc(CCN3CCCCC3)c2c1F [Compound 36, 4-fluoro-5-methoxy-3-(2-(piperidin-1-yl)ethyl)-1H-indole] | 2.42 nM | 8.97 nM |  |  |  | 
10 | COc1ccc2[nH]cc(CCN3CC=CC3)c2c1 [Compound 21, 3-(2-(2,5-dihydro-1H-pyrrol-1-yl)ethyl)-5-methoxy-1H-indole] |  | 0.257 nM | 9.91 nM |  |  | EC50 ([5]; Gi BRET EC50): 0.3 nM; further increase in potency at 5-HT1A ([5]; relative to 5-MeO-PyrT): ~8 fold
11 | C=CCN(C)CCc1c[nH]c2ccc(OC)cc12 [Compound 16] | 9.64 nM | 42.7 nM | 24.5 nM and 25.7 nM |  |  | 
12 | CCN(CC)CCc1c[nH]c2ccc(OC)c(F)c12 [Compound 3] |  |  |  | 673 nM | 0.21 nM | EC50 ([4]; pEC50 Gio(cAMP)-1A, Table 2): 0.204 nM; EC50 [5, 11]: 3.18 nM
13 | COc1ccc2[nH]cc(CCN3CCCC3)c2c1F [Compound 35, 4-fluoro-5-methoxy-3-(2-(pyrrolidin-1-yl)ethyl)-1H-indole] | 0.03 nM and 0.0282 nM | 0.372 nM | 300 nM |  |  | 
14 | CCCN(CCc1c[nH]c2ccc(OC)c(F)c12)C(C)C [Compound 8] |  |  |  | 249 nM | 5.96 nM | EC50 ([4]; pEC50 Gio(cAMP)-1A, Table 2): 5.89 nM; EC50 [5, 11]: 16.8 nM; EC50 ([5]; pEC50 BRET Gi1-1A, Table 2): 16.6 nM
15 | CCCN(C)CCc1c[nH]c2ccc(OC)cc12 [Compound 10] | 18.6 nM | 60.3 nM | 28.3 nM |  |  | 
16 | COc1ccc2[nH]cc(CCN(C(C)C)C(C)C)c2c1F [Compound 9] |  |  |  | 338 nM | 6 nM | EC50 [5, 11]: 35.8 nM
17 | CC[C@H]1C[C@@H]2C=C[C@H]1N(CCc1c[nH]c3ccc(OC)c(F)c13)C2 [Compound 15] |  |  |  |  | 47.3 nM | EC50 ([4]; pEC50 Gio(cAMP)-1A, Table 2): 46.8 nM
18 | CCCN(C)CCc1c[nH]c2ccc(OC)cc12 [Compound 10, 5-MeO-MPT] |  |  |  |  |  | EC50 [7]: 100 nM; Emax ([7]; read-out: 5-HT2B (IP1) Emax (%5-HT), Table 3): 61%; EC50 [8]: 79 nM; Emax ([8]; read-out: 5-HT2A (IP1) Emax (%5-HT)): 89%
19 | CCCN(CCc1c[nH]c2ccc(OC)c(F)c12)C(C)C [Compound 32, N-(2-(4-fluoro-5-methoxy-1H-indol-3-yl)ethyl)-N-isopropylpropan-1-amine] | 5.96 nM and 5.89 nM | 16.8 nM and 16.6 nM | 249 nM |  |  | 
20 | CCN(C)CCc1c[nH]c2ccc(OC)c(F)c12 [Compound 2] |  |  |  | 99.3 nM |  | EC50 ([4]; pEC50 Gio(cAMP)-1A, Table 2): 0.316 nM; EC50 [5, 11]: 1.77 nM
21 | CCN(CC)CCc1c[nH]c2ccc(O)c(F)c12 [Compound 17] |  |  |  |  | 0.76 nM | 
22 | COc1ccc2c(c(CCN3CCCC3)cn2C)c1F [Compound 19] |  |  |  |  | 100 nM | 
